One experiment addresses T1, Human Recombinant Matriptase 2 (Homo sapiens, UniProt Q8IU80).
T1 construct: made in house
T1 sequence (Q8IU80 1-811): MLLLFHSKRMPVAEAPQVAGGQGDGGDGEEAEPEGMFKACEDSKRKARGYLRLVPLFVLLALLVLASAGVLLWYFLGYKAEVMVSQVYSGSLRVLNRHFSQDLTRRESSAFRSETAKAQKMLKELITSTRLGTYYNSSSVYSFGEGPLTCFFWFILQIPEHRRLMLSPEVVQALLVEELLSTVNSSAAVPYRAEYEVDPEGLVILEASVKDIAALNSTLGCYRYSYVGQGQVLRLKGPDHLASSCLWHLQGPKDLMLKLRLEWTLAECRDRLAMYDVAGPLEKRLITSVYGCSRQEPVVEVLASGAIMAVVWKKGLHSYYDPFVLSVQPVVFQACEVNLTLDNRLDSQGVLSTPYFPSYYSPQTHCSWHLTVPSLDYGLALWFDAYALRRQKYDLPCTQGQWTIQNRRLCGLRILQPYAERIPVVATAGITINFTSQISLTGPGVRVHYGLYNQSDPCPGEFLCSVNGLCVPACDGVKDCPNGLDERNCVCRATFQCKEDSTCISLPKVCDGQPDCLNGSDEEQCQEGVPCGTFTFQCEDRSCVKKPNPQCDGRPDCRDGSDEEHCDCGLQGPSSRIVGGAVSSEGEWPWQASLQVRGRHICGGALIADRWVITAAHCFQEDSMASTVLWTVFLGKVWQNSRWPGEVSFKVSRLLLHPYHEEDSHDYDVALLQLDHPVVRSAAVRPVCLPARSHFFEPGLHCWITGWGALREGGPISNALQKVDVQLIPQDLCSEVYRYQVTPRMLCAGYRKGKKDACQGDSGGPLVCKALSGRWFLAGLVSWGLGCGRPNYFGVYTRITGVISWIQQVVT
Kind of experiment: Matriptase 2 inhibition, fluorescence based assay (Method I). Conditions: Table A; Ki of Matriptase-2; read-out: Mat-2 Ki. It is filed as biochemical. The procedure, abridged: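 Fluorogenic readout (Ex 360/Em 480 nm) taken 60 min after adding 62 μM Boc-Gln-Ala-Arg-AMC, following 30-min enzyme–compound preincubation at 25 °C. Conditions: 3.5 nM in-house enzyme, pH 7.5 Tris/NaCl/gelatin buffer, 1% DMSO; percent inhibition versus concentration fitted by variable-slope sigmoidal regression.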
For orientation: Ki means a dissociation constant, usually derived from enzyme kinetics or from competition with a known ligand. In the case of `CNCCNC(=O)c1cc2ccc(CN)nc2n1Cc1cc(NS(=O)(=O)Cc2ccccc2)cc2ccccc12` [Compound 76, 6-(aminomethyl)-N-[2-(methylamino)ethyl]-1-{[3-(phenylmethane-sulfonamido)naphthalen-1-yl]methyl}-1H-pyr-rolo[2,3-b]pyridine-2-carboxamide], the inhibition constant (Ki) was no more than 100 nM. On the same count and under the same terms, for `NCc1ccc2cc(C(=O)OCC3(CN)CC3)n(Cc3cc(NS(=O)(=O)Cc4ccccc4)cc4ccccc34)c2n1` [Compound 55, [1-(aminomethyl)cyclo-propyl]methyl 6-(amino-methyl)-1-{[3-(phenyl-methanesulfonamido)-naphthalen-1-yl]methyl}-1H-pyrrolo[2,3-b]pyr-idine-2-carboxylate] the value was no more than 100 nM; for `NCc1ccc2cc(C(=O)OCCN3CCOCC3)n(Cc3cc(NS(=O)(=O)Cc4cccs4)cc4ccccc34)c2n1` [Compound 151, 2-(morpholin-4-yl)ethyl 6-(aminomethyl)-1-({3-[(thiophen-2-yl)methane-sulfonamido]naphthalen-1-yl}methyl)-1H-pyr-rolo[2,3-b]pyridine-2-carboxylate], no more than 100 nM; for `NCc1ccc2cc(C(=O)OCCS(N)(=O)=O)n(Cc3cc(NS(=O)(=O)Cc4ccccc4)cc4ccccc34)c2n1` [Compound 84, 2-sulfamoylethyl 6-(aminomethyl)-1-{[3-(phenylmethanesulfon-amido)naphthalen-1-yl]-methyl}-1H-pyrrolo[2,3-b]pyridine-2-carboxylate], 100 to 500 nM. As to `NCc1ccc2cc(C(=O)OCCn3cnnn3)n(Cc3cc(NS(=O)(=O)Cc4ccccc4)cc4ccccc34)c2n1` [Compound 86, 2-(1H-1,2,3,4-tetrazol-1-yl)ethyl 6-(amino-methyl)-1-{[3-(phenyl-methanesulfonamido)-naphthalen-1-yl]methyl}-1H-pyrrolo[2,3-b]pyr-idine-2-carboxylate], the Ki lay within 100 to 500 nM. Regarding `CN1CCC(COC(=O)c2cc3ccc(CN)nc3n2Cc2cc(NS(=O)(=O)Cc3ccccc3)cc3ccccc23)CC1` [Compound 17, (1-methylpiperidin-4-yl)methyl 6-(amino-methyl)-1-{[3-(phenyl-methanesulfonamido)-naphthalen-1-yl]methyl}-1H-pyrrolo[2,3-b]pyr-idine-2-carboxylate], the Ki is no more than 100 nM. With `CC(C)n1cncc1COC(=O)c1cc2ccc(CN)nc2n1Cc1cc(NS(=O)(=O)Cc2ccccc2)cc2ccccc12` [Compound 70, [1-(propan-2-yl)-1H-imidazol-5-yl]methyl 6-(aminomethyl)-1-{[3-(phenylmethanesulfon-amido)naphthalen-1-yl]-methyl}-1H-pyrrolo[2,3-b]pyridine-2-carboxylate], the Ki is no more than 100 nM.

The same experiment, now with this note: Table A; Ki of Matriptase-2 given as class symbols; read-out: Mat-2 Ki.
For the compound `CN1CCC(Cc2nnc(-c3cc4ccc(CN)nc4n3Cc3cc(NS(=O)(=O)Cc4ccccc4)cc4ccccc34)o2)CC1` [Compound 346, N-(4-{[6-(aminomethyl)-2-{5-[(1-methylpiperidin-4-yl)methyl]-1,3,4-oxa-diazol-2-yl}-1H-pyrrolo-[2,3-b]pyridin-1-yl]meth-yl}naphthalen-2-yl)-1-phenylmethanesulfon-amide], the Ki was 100 to 500 nM. Turning to `NCc1ccc2cc(C(=O)O)n(Cc3cc(NS(=O)(=O)Cc4cscn4)cc4ccccc34)c2n1` [Compound 239, 6-(aminomethyl)-1-({3-[(1,3-thiazol-4-yl)meth-anesulfonamido]naph-thalen-1-yl}methyl)-1H-pyrrolo[2,3-b]pyridine-2-carboxylic acid], the Ki is 100 to 500 nM. As for `NCc1ccc2cc(C(=O)O)n(Cc3cc(NS(=O)(=O)Cc4cccc(F)c4)cc4ccccc34)c2n1` [Compound 229, 6-(aminomethyl)-1-({3-[(3-fluorophenyl)meth-anesulfonamido]naph-thalen-1-yl}methyl)-1H-pyrrolo[2,3-b]pyridine-2-carboxylic acid], the Ki lay in the range of 100 to 500 nM.

The same experiment, now with this note: Table B; Human Recombinant Matriptase 2, 3.5 nM enzyme, 62 μM substrate, 30 mins preincubation; read-out: Mean Ki.
Turning to `CN1CCC(COC(=O)c2cc3ccc(CN)nc3n2Cc2cc(NS(=O)(=O)Cc3ccccc3)cc3ccccc23)CCC1=O` (centres unmarked) [Compound 2.18], the Ki is no more than 100 nM.

Values taken from patent publication US20240400553A1, “AMINE BASED MATRIPTASE 2 INHIBITORS AND USES THEREOF” (Disc Medicine, Inc., priority 2023, published 2024).
